# Measured values from ChEMBL document CHEMBL3621069 (Bioorg Med Chem Lett, 2015).
# Key:
# [1] = biological target: Mitogen-activated protein kinase kinase kinase 9 (Homo sapiens) (UniProt P80192); test: Inhibition of human MLK1 at 0.01 uM
# [2] = biological target: Voltage-gated inwardly rectifying potassium channel KCNH2 (Homo sapiens, UniProt Q12809); test: Inhibition of human ERG by manual patch clamp assay
# [3] = Clearance in dog at 5 mg/kg, iv; type: ADME, organism-based, Canis lupus familiaris; conditions: in vivo
# Mus musculus [4] = test: Anti-arthritic activity in DBA1/J mouse model of collagen-induced arthritis assessed as reduction in arthritis clinical scores at 10 mg/kg, po administered orally continued once daily and twice daily through study; type: functional
# Mus musculus [5] = test: Anti-arthritic activity in DBA1/J mouse model of collagen-induced arthritis assessed as reduction in arthritis clinical scores at 30 mg/kg, po administered orally continued once daily and twice daily through study; type: functional
# [6] = biological target: Serine/threonine-protein kinase PLK3 (Homo sapiens) (UniProt Q9H4B4); test: Inhibition of human Plk3 at 0.1 uM
# Chain of Serine/threonine-protein kinase PLK3 (Homo sapiens) (Q9H4B4 whole entry, looked up): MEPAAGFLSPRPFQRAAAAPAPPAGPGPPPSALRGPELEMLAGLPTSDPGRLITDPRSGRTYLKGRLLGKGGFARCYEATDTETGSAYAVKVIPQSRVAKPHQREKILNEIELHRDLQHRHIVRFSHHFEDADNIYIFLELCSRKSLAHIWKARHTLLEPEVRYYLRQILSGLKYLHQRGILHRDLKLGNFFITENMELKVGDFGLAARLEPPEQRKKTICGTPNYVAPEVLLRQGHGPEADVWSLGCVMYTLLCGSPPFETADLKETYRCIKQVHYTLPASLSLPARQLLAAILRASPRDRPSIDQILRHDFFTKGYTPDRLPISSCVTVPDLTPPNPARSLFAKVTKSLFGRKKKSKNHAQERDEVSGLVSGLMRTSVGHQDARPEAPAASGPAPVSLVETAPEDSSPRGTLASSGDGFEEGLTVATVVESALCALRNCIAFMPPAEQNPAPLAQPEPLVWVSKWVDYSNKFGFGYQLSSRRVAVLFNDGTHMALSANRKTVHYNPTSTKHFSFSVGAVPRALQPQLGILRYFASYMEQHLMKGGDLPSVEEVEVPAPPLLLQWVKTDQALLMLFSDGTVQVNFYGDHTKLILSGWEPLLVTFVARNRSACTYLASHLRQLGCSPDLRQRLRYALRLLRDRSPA
# [7] = biological target: Tyrosine-protein kinase Fyn (Homo sapiens) (UniProt P06241); test: Inhibition of human Fyn (unknown origin) at 0.1 uM
# [8] = biological target: Proto-oncogene tyrosine-protein kinase Src (Homo sapiens) (UniProt P12931); test: Inhibition of human Src (1 to 530 residues) at 0.1 uM
# Chain of Proto-oncogene tyrosine-protein kinase Src (Homo sapiens) (P12931 2-536 limits assumed): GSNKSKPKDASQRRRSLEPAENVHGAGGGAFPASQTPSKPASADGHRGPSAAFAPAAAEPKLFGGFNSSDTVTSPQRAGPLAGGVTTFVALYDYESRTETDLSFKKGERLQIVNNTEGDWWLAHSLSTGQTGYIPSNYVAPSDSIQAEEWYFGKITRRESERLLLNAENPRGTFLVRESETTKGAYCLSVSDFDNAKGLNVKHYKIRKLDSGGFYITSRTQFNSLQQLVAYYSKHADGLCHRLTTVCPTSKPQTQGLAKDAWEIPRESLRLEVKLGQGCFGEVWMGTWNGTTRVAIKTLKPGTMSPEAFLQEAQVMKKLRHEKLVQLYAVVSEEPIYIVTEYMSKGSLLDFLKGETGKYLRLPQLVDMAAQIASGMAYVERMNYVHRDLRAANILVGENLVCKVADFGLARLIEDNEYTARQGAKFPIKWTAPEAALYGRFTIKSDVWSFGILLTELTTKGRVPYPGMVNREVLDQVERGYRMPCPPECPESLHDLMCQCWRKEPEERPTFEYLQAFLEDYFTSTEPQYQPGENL
# [9] = biological target: Tyrosine-protein kinase HCK (Homo sapiens) (UniProt P08631); test: Inhibition of human Hck at 0.1 uM
# Chain of Tyrosine-protein kinase HCK (Homo sapiens) (P08631 2-526 limits assumed): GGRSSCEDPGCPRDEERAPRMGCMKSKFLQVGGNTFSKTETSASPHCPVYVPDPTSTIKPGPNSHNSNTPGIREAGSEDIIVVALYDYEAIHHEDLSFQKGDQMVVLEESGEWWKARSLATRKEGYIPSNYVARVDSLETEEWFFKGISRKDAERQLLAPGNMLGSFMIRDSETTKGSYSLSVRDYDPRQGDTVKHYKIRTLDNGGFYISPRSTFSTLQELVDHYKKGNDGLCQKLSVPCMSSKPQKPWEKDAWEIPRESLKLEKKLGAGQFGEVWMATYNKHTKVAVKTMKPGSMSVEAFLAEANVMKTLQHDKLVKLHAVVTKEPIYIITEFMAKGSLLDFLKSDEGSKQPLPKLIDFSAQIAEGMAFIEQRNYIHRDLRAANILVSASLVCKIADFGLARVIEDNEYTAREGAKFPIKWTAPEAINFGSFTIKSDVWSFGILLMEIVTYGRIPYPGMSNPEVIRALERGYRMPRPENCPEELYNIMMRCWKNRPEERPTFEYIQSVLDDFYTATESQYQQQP
# [10] = biological target: Tyrosine-protein kinase Blk (Homo sapiens) (UniProt P51451); test: Inhibition of human Blk at 0.1 uM
# [11] = biological target: Serine/threonine-protein kinase PLK3 (Homo sapiens) (UniProt Q9H4B4); test: Inhibition of human Plk3 at 0.01 uM
# [12] = test system: Proto-oncogene tyrosine-protein kinase receptor Ret (Homo sapiens), P07949 [V804M]; conditions: 0.1 uM
# Chain of Proto-oncogene tyrosine-protein kinase receptor Ret (Homo sapiens), P07949 [V804M] (P07949 whole entry V804M): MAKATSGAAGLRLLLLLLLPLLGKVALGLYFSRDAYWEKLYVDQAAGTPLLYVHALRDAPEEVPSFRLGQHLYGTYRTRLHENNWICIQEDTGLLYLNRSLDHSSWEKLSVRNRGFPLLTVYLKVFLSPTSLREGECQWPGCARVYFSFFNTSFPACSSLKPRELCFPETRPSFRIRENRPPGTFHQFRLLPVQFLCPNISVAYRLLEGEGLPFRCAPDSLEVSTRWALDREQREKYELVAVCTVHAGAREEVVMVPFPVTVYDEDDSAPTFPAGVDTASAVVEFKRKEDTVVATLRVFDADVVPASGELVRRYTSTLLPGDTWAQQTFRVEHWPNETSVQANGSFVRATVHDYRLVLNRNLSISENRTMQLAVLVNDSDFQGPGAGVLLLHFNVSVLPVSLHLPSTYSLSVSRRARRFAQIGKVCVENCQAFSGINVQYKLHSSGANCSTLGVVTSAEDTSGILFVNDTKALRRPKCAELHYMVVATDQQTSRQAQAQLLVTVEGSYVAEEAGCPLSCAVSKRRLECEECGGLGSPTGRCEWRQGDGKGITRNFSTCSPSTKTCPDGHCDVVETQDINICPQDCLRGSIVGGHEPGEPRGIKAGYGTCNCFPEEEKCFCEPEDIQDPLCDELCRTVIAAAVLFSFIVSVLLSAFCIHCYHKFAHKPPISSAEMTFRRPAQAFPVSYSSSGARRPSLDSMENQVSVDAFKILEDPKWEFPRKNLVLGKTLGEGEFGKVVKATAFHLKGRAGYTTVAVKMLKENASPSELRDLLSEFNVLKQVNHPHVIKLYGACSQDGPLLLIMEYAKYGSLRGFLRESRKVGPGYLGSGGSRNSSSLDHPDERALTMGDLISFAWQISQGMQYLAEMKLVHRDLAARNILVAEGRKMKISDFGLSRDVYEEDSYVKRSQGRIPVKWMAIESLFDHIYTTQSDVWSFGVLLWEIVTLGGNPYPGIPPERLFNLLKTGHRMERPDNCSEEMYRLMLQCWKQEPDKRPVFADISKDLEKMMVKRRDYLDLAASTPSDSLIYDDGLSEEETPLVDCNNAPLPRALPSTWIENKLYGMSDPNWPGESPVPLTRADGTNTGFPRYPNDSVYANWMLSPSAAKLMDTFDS
# Description: Inhibition of human Ret V804M mutant at 0.1 uM
# [13] = biological target: Tyrosine-protein kinase SYK (Homo sapiens, UniProt P43405); test: Inhibition of SYK-mediated TNFalpha production in human IgG-stimulated human THP1 cells incubated for 18 hrs by ELISA method; type: cell-based, THP-1
# Chain of Mitogen-activated protein kinase kinase kinase 9 (Homo sapiens) (P80192 whole entry, looked up): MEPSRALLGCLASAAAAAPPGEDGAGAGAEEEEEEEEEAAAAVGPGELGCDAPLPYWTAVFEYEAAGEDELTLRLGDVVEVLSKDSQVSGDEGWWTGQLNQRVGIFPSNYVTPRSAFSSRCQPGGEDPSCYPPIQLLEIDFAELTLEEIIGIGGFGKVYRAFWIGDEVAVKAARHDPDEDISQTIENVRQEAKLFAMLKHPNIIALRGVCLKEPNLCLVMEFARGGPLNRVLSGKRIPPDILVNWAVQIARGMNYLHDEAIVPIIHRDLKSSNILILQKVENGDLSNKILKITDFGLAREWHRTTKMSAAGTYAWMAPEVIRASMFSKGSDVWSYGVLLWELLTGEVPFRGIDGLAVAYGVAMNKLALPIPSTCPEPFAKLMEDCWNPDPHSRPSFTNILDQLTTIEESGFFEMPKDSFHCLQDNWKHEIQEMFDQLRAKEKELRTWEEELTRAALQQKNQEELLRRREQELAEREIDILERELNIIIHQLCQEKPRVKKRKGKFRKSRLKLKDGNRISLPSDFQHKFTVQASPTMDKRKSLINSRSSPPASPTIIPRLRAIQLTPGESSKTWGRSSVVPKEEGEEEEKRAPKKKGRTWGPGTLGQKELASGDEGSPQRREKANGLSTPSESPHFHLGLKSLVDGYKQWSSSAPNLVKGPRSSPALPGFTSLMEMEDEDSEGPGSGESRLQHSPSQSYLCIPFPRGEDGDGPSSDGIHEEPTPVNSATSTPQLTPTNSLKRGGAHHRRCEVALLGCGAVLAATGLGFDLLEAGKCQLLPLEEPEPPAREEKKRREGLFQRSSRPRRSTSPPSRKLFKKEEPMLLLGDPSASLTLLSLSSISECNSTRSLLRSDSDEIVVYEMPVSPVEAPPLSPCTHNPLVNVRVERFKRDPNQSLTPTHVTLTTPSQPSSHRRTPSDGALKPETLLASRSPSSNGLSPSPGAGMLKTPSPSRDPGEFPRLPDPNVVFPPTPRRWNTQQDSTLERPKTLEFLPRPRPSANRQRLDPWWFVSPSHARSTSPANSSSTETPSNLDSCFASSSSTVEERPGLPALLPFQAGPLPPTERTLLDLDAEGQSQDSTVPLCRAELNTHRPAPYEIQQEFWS
# Chain of Voltage-gated inwardly rectifying potassium channel KCNH2 (Q12809 whole entry): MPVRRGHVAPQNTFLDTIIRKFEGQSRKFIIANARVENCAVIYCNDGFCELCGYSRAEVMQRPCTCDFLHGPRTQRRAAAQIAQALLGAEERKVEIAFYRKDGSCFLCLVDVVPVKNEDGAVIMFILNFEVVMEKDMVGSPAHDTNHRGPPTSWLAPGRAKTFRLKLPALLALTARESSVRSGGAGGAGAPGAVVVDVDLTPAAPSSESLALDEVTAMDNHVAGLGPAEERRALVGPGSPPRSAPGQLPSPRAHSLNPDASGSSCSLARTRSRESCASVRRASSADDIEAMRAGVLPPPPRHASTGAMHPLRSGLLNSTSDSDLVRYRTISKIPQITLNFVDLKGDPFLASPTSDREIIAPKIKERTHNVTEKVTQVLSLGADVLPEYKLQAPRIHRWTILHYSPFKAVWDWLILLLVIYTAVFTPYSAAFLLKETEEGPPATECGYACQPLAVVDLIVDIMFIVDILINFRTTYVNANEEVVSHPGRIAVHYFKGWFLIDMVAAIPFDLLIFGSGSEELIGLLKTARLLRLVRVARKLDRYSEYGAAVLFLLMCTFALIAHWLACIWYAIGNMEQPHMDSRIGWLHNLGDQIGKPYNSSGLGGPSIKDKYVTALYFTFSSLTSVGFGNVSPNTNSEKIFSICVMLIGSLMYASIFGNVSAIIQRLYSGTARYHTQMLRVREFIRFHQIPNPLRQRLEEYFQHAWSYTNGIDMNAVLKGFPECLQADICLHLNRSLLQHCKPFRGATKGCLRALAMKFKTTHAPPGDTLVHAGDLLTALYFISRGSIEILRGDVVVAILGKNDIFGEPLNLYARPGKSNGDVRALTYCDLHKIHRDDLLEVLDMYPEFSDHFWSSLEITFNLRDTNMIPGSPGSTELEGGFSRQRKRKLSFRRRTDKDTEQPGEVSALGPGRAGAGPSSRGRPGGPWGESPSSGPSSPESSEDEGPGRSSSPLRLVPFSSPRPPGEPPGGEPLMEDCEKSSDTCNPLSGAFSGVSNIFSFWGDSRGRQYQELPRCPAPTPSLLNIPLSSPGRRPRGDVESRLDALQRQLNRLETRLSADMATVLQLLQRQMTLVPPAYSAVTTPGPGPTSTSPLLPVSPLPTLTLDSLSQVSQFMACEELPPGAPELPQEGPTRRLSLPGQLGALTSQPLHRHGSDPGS
inhibition [1] [%],clearance [3] [mL/min/kg],inhibition [6] [%],inhibition [7] [%],inhibition [8] [%],inhibition [9] [%],inhibition [10] [%],inhibition [11] [%],inhibition [12] [%],IC50 [13] [µM],Structure (SMILES),IC50 [2] [µM],inhibition in vivo at 10 mg/kg (Mus musculus [4]) [%],inhibition in vivo at 30 mg/kg (Mus musculus [5]) [%]
44,40.4,> 70,< 25,< 25,< 25,< 25,< 50,> 70,,Cc1nn(-c2ccnc(Nc3ccc4c(c3)c(Cl)c(C)n4C)n2)cc1CN1CC(O)C1,24.2,30,50
,,,,,,,,,0.056,Cc1nn(-c2ccnc(Nc3ccc4c(c3)c(C)c(C)n4C)n2)cc1CN1CC(O)C1,,,
